These results are taken from patent US20080113908A1, “Use of CRF receptor agonists for the treatment or Prophylaxis of diseases, for example Neurodegenerative diseases” (SmithKline Beecham plc, priority 2000, published 2008).

In brackets after ≈: the same amount, converted by molar mass. Like-named read-outs stand apart in the source and are kept apart here.

In experiment [1] the test system is GSK-3β. Put plainly: Western blot of serine-9-phosphorylated GSK-3β (FIG. 5). The class given is cell-based, rat. The following applies: compound alone, 2 hours; CRF 10 nM, LY 294002 75 μM, FSK 30 μM. The text has this: It was thought that CRF receptor agonists might interact with the PI 3-kinase signalling pathway and exert their neuroprotective effect by phosphorylating and inhibiting the protein GSK-3β,which is pro-apoptotic (M. Pap and G. M. Cooper, J. Biol. Chem., 273(32), 19929-19932, 1998; and M. Hetman et al. J. Neurosci., 1st Apr. 2000, 20(7), 2567-2574; discussed hereinabove). In order to confirm this, the level of GSK-3β phosphorylated at serine-9 (e.g. see D. A. E. Cross, Nature, 378, 785-789, 1995) in control cultures of cerebellar granule neurones was measured using Western blots, and compared to the level of phospho-GSK-3β in the presence of CRF as a model CRF receptor agonist and/or in the presence of the PI 3-kinase inhibitor LY 294002. In order to determine whether elevation of cAMP was involved in any effect, the level of phospho-GSK-3β in cultures in the presence of the known cAMP-elevating agent forskolin (FSK, obtainable e.g. from Calbiochem.) with or without LY 294002 present was also measured. The forskolin acts as a benchmark for cAMP-related effects.
The method used was as follows. […]
Phosphorylation of GSK-3β was detected using an antibody to serine-9-phosphorylated GSK-3β (anti-phospho-GSK-3β (Ser9)) available as catalogue no. […]

For experiment [2], the target named is PI 3-kinase. As to conditions: cited from earlier work.
The test system of experiment [3] is cerebellar granule neurones. The class given is cell-based, rat. As to conditions: 48 h, MTT, sham-treated = 100%. On the procedure:
Cerebellar granule neurones were used in the examples to test neuroprotection by CRF receptor agonists. Cerebellar granule neurones (CGNs) undergo apoptosis during the first few weeks of postnatal life, and in culture require mildly depolarising concentrations of KCl (25 mM) for their survival and maturation (S. R: D'Mello et al., Proc. Natl. Acad. Sci. USA 90, 10989-10993, 1993). The growth signal provided by KCl depends upon activation of the phosphatidylinositol 3-kinase (PI 3-kinase) pathway, and pharmacological inhibition of PI 3-kinase in differentiated granule neurones leads to apoptotic death in the CGNs (T. M. Miller et al., J. Biol. Chem., 272, 9847-9853, 1997). Thus, cultured CGNs represent a suitable model to study mechanisms of programmed cell death, and to identify putative neuroprotective signalling pathways.
Assay 1: Cerebellar granule neurones prepared from postnatal day 8 Sprague Dawley rat pups were used for experiments on death induced by inhibition of PI 3-kinase. General culture methods are described in S. D. Skaper et al. in Methods in Neurosciences, Vol. 2 (Conn P. M., ed), pp. 17-33. Academic Press, San Diego, 1990. At 8-9 days in vitro (DIV), granule neurone cultures were shifted to phenol red-free Dulbecco's modified Eagle's medium lacking serum, and containing 0.05% bovine serum albumin and 25 mM KCl. Death was induced by addition of the PI 3-kinase inhibitor LY 294002 (75 μM). CRF or CRF agonist peptides (urotensin 1, urocortin, sauvagine) were added at different concentrations (from 0.3nM to 300 nM or 1000 nM) together with LY 294002. Forty-eight hours later neuronal survival was quantified by a colorimetric reaction MTT. Absolute MTT values obtained were normalised for small differences in interexperiment plating densities by scaling to the mean of sham-treated sister cultures (defined as 100%).
Results are shown in Table 1 below and in graphical form in FIG. 1, which show the percentage mean neuronal survival (and standard deviation), when in the presence of the relevant CRF receptor agonists and LY 294002, as a function of agonist concentration. […] Urotensin 1, urocortin and sauvagine were also neuroprotective albeit with lower potency (<1 μM).

Experiment [4] relates to cerebellar granule neurones. Put plainly: Assay 3: intracellular cyclic AMP enzyme immunoassay. The following applies: agonist 0 to 30 nM, 15 min, 0.5 mM IBMX. Type of experiment: cell-based, rat. On the procedure: Assay 3: The production of cAMP by the CRF receptor agonist peptides CRF, urotensin 1, urocortin and sauvagine was measured as follows. This assay can be used analogously for any putative CRF receptor agonists including non-peptide agonists.
Intracellular cyclic AMP was measured with a cAMP 2-site enzyme immunoassay system (trade mark BIOTRAK, commercially available from Amersham Pharmacia Biotech, PO Box 164, Rainham, Essex RM13 8JZ, United Kingdom, Amersham catalogue number RPN225), based upon the use of a sensitive and highly specific capture antibody for cyclic AMP:
Cerebellar granule neurones were seeded in polylysine-coated […] plates, 3.5×10^5 cells per 48-well, in Basal medium Eagle's containing 10% fetal calf serum, 25 mM KCl, and antibiotics. At 8-9 days in vitro, granule neurone cultures were shifted to serum-free plating medium (0.4 ml) with 0.5 mM IBMX (to inhibit the breakdown of cyclic AMP) for 15 min (37° C.). Wells then received 0.1 ml of test peptide (5× final concentration). Generally 1 μM is the preferable final concentration for a putative CRF agonist under test, though different (e.g. lower) concentrations can be used as shown for the peptide agonists in FIG. 3. Incubation was continued for 15 min. Test medium was removed and the plate placed on dry ice, and stored at −140° C. Cyclic AMP analysis was performed the following day.
Cells were then lysed with the reagent provided with the BIOTRAK kit. Intracellular content of cyclic AMP in the lysates was assayed following the manufacturer's instructions. A standard curve was constructed using the cyclic AMP calibration provided, with the quantity of bound cyclic AMP being inversely proportional to the amount of second (chromogenic) antibody bound to the reaction wells. The colour product was read with an ELISA plate reader, and was a function of the amount of cyclic AMP in the unknown sample.

Experiment [5] relates to spontaneous hypertensive rats (SHR). Description: Distal middle cerebral artery occlusion (MCAO), icv dosing (FIG. 7). Type of experiment: in vivo. As to conditions: 10 μg/rat icv, 15 min and 2 hours post MCAO; 24 h permanent MCAO. The procedure:
The animal protocols are as follows.
Focal ischemia experiments were performed on male spontaneously hypertensive rats (SHR; Taconic Farms, Germantown, N.Y., US) weight range 280-340 g. Body temperature was maintained at 37° C. during all surgical procedures and during recovery from anesthesia (i.e., until normal locomotor activity returned). Animals were anesthetized with pentobarbital (65 mg/kg, i.p.) and underwent permanent, right middle cerebral artery occlusion (MCAO) for 24 h as described previously (F. C. Barone et al., Neuroscience & Biobehavioral Reviews, 16 (1992) 219-33, and F. C. Barone et al., Stroke, 29 (1998) 1937-50). Body temperature was monitored throughout the surgical procedure by a rectal thermometer, and the animals maintained normothermic (37±0.5° C.) via a heating blanket controlled by the thermometer. A needle temperature probe was also inserted into the left temporalis muscle to give an indirect measurement of brain temperature. Actual core and temporalis temperature values were recorded at the time of MCA occlusion. […]
The rats were allowed to recover from surgery on a heating pad while containing to be under the influence of the pentobarbital anesthesia. Once animals were able to right themselves and begin spontaneous movement, they were placed in cages on the heating pads and monitored for any distress until fully recovered from anesthesia. […]

Broadly, the IC50 is the concentration at which inhibition is half-maximal. Consider `O=c1cc(N2CCOCC2)oc2c(-c3ccccc3)cccc12` [LY 294002, 2-(4-morpholinyl)-8-phenyl-4H-1-benzopyran-4-one], for which, in experiment [1], the “phospho-GSK-3β level compared to control CN” value was “a decrease compared to control”. In experiment [2], the IC50 was 1.4 µM and the “IC50 PI 3-kinase activity” value was 0.43 µg/mL (≈ 1.4 µM).
For the molecule “NDDPPISIDLTFHLLRNMIEMARIENEREQAGLNRKYLDEV [Urotensin 1, Urotensin 1 (teleost fish, Sigma cat. no. U-7253), CRF receptor agonist peptide]”, the Mean survival % in experiment [3] (agonist 0.3 nM with LY 294002 75 μM) was found to be 42%; in experiment [3] (agonist 1 nM with LY 294002 75 μM) it was 52.89%; in experiment [3] (agonist 3 nM with LY 294002 75 μM), 68%; in experiment [3] (agonist 10 nM with LY 294002 75 μM), 74.44%; in experiment [3] (agonist 30 nM with LY 294002 75 μM), 71.67%; in experiment [3] (agonist 100 nM with LY 294002 75 μM), 71.17%. Also, the Mean survival % in experiment [3] (agonist 300 nM with LY 294002 75 μM) worked out at 73.83%; in experiment [3] (agonist 1000 nM with LY 294002 75 μM) it was 79.17%. In addition, the “cAMP synthesis induced by agonist (FIG. 3)” value in experiment [4] is given as “cAMP production increased with agonist concentration”. In addition, in experiment [5], the infarct size is recorded as 70-80 mm^3. Besides, in experiment [5], the “numerical score for neurological deficits” value was determined as 9.
